Legend:
FGFR4 (h) = FGFR4 (h) (Homo sapiens, UniProt P22455); test: FGFR4 (enzymatic assay), TR-FRET; assay type: biochemical; details: FGFR 4 pIC50, enzymatic assay
KDR (h) = KDR (h) (Homo sapiens, UniProt P35968); test: KDR (VEGFR2) (enzymatic assay), TR-FRET; assay type: biochemical; details: read-out: VEGFR 2 (KDR) pIC50 (converted)
How it was run: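 Low-ATP (3 μM) TR-FRET kinase assay using 500 nM Btn-Flt3 peptide and 150 ng/ml enzyme, run 2 h at room temperature with 6 mM MnCl2 and 0.1 mM Na3VO4. Signal from Eu-anti-P-Tyr/SA-XL-665 is recorded in RFU.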

[1] = test system: Ba/F3-FGFR1-transfected cells; test: Ba/F3-FGFR1 (plus IL3) cellular proliferation assay, counterscreen with 10 ng/ml murine IL3; assay type: cell-based; details: plus IL3 (10 ng/ml murine IL3, counterscreen); read-out: BAF3-FGFR1 (PLUS IL3) pIC50 (converted)
How it was run: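 Proliferation read-out: resazurin-based Alamar Blue fluorescence (540/590 nm) after 4 h, following 24 h compound treatment of 20000 Ba/F3-FGFR1 cells per well in 10% FBS RPMI at 37° C. IL3 counterscreen used the same protocol plus 10 ng/ml murine IL3.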

[2] = molecular target: T1, Ba/F3-FGFR3-transfected cells (Homo sapiens, UniProt P22607); test: Ba/F3-FGFR3 (minus IL3) cellular proliferation assay, Alamar Blue; assay type: cell-based
T1 construct: BAF3-FGFR3 (MIN IL3) pIC50; other: minus IL3
How it was run: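 Ba/F3 cells transfected with FGFR3, 20000/well in phenol red-free RPMI-1640 with 10% FBS, exposed to compound for 24 h at 37 °C, 5% CO2. Alamar Blue (resazurin) added for 4 h more; fluorescence read at ex 540/em 590 nm. Counterscreen run the same way with 10 ng/ml murine IL3.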

KDR (h), sequence (P35968 20-1356): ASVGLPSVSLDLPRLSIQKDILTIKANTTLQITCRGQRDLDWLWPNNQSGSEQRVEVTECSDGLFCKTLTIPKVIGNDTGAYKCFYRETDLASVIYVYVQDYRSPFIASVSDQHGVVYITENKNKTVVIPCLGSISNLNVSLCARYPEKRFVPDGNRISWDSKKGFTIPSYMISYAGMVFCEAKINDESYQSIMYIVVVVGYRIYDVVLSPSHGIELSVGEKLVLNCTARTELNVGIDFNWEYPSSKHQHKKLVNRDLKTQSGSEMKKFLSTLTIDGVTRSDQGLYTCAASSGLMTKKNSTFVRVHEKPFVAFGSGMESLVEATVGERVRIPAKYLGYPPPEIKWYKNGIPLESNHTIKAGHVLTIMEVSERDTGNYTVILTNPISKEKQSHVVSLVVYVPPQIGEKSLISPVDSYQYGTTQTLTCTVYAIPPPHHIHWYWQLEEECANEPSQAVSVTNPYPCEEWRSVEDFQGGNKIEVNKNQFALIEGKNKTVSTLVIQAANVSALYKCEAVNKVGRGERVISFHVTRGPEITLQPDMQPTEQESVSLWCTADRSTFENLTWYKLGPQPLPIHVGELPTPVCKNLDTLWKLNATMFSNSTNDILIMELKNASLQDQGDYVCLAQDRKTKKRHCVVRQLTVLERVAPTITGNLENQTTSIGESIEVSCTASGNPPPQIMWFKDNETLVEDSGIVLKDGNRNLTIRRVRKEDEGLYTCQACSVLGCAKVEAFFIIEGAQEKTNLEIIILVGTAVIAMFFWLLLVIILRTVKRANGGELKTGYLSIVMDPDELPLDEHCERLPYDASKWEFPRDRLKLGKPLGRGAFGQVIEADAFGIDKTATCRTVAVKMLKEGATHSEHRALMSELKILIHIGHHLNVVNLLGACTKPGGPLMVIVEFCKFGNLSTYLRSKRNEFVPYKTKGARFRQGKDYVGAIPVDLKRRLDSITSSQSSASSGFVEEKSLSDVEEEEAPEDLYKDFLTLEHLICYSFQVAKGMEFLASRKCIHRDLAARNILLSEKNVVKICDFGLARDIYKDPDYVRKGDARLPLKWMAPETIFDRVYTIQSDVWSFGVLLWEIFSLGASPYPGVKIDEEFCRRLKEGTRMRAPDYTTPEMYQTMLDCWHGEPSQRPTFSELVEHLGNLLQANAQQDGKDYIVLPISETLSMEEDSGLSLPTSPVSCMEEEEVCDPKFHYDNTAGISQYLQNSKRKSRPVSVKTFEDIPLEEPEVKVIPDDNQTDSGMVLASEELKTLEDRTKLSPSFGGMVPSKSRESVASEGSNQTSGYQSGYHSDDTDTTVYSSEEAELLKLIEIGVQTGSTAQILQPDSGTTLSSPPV
FGFR4 (h), sequence (P22455 22-802): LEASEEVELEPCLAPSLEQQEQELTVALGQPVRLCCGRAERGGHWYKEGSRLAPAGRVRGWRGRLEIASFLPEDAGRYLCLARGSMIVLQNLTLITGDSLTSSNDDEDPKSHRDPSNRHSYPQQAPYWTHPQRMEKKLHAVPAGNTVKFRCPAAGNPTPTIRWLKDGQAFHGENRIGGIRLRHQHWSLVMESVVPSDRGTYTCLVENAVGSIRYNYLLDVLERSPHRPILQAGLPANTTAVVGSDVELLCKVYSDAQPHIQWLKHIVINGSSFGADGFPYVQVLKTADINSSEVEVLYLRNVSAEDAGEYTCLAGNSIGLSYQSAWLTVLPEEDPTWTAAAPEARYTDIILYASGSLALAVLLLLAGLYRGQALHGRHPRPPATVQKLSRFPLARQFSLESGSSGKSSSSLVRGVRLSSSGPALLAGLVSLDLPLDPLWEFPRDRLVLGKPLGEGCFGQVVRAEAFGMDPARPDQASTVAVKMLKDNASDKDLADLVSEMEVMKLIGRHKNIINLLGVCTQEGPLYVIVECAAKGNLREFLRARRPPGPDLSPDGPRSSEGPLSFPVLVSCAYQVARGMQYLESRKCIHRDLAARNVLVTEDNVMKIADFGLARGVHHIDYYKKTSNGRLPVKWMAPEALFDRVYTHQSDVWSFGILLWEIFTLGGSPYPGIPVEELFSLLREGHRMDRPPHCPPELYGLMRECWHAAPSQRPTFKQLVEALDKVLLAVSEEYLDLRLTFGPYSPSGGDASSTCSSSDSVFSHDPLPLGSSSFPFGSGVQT
T1 sequence (P22607 whole entry, change not shown): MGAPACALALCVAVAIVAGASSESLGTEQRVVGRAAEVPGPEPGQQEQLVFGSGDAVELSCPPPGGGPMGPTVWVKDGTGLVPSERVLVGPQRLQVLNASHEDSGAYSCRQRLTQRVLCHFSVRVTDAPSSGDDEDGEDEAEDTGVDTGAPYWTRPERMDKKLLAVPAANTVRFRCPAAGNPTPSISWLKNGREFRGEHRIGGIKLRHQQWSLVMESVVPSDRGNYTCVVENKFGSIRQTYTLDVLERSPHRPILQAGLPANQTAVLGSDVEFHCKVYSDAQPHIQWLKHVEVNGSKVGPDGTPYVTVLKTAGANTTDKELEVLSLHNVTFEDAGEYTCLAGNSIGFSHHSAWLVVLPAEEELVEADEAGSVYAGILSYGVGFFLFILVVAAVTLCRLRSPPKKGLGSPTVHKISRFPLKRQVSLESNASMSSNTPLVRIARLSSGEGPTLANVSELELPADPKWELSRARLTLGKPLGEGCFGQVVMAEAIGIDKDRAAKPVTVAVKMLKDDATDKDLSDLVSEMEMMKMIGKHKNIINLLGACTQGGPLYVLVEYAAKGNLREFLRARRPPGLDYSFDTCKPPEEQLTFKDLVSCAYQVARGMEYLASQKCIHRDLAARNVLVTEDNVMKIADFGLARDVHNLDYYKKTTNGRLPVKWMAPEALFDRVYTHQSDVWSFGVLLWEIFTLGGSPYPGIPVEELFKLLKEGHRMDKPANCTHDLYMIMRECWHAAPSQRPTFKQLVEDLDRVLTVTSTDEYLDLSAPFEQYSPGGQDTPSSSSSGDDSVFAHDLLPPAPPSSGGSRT

| SMILES | IC50 (FGFR4 (h)) [nM] | IC50 (KDR (h)) [nM] | IC50 [1] [nM] | BAF3-FGFR3 (MIN IL3) pIC50 [2] | melting point [°C] |
| --- | --- | --- | --- | --- | --- |
| CNC(=O)c1cc(F)cc(N(Cc2ncc[nH]2)c2ccc3ncc(-c4cnn(C)c4)nc3n2)c1 [Compound 261] | 6.03 | 10.2 | > 10000 | ~7.74 | 180 |
| COc1cc(OC)c(F)c(N(CCS(C)(=O)=O)c2ccc3ncc(-c4cnn(CCS(C)(=O)=O)c4)nc3n2)c1 [Compound 266] | 4.27 | 34.7 | > 10000 | 6.35 | 180 |
| COc1cc(OC)cc(N(CCS(C)(=O)=O)c2ccc3ncc(-c4cnn(CCS(C)(=O)=O)c4)nc3n2)c1 [Compound 275] | 12 | 141 | > 10000 | 5.80 | 172 |
| COc1cc(OC)cc(N(Cc2nnc(NCCO)o2)c2ccc3ncc(-c4cnn(C)c4)nc3n2)c1 [Compound 282] | 105 | 661 | > 10000 | <5 | 104 |
| CNCCn1ccnc1CN(c1ccc2ncc(-c3cnn(C)c3)nc2n1)c1cc(OC)cc(OC)c1F [Compound 289] | 57.5 | 97.7 | > 10000 | 6.92 | 92 |

From patent publication US9309242B2, “Substituted pyrido[2,3-b]pyrazines as FGFR kinase inhibitors” (priority 2011, dated 2016)
